Test results published in patent US20240043440A1, “COMPOSITIONS AND METHODS OF MODULATING SHORT-CHAIN DEHYDROGENASE ACTIVITY” (CASE WESTERN RESERVE UNIVERSITY, priority 2017, published 2024).

biological target: recombinant 15-PGDH (Homo sapiens (Human), UniProt P15428); assay: inhibition of enzymatic activity of recombinant 15-PGDH, in vitro assay; type: biochemical; conditions: Enzyme Inhibitor IC50 (nM) at 1 nM 15-PGDH, 1 nM recombinant 15-PGDH
From the text: This Example provides data on a group of structural analogues of SW033291. Data provided is the IC50 of each compound for inhibiting enzymatic activity of recombinant 15-PGDH in an in vitro assay. Recombinant 15-PGDH is human unless otherwise specified. Additionally, the example provides aqueous solubility data for selected analogues in pH 7 or pH 4 citrate buffer solution.

Sequence of recombinant 15-PGDH (P15428 whole entry): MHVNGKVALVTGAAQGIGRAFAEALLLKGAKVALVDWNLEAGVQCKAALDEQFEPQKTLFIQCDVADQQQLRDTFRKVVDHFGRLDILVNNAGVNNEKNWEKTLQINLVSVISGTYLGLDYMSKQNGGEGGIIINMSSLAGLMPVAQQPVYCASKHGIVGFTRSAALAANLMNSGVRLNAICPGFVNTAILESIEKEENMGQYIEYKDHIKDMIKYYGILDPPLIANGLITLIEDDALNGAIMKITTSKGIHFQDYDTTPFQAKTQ

| IC50 [nM] | Compound |
| --- | --- |
| 28 | CCCC[S+]([O-])c1sc2nc(-c3cccnc3)nc(-c3ccccc3)c2c1N (single isomer, unassigned) [74B, 6-(butylsulfinyl)-4-phenyl-2-(pyridin-3-yl)thieno[2,3-d]pyrimidin-5-amine] |
| 0.52 | CCCC[S+]([O-])c1sc2nc(-c3cccnc3)nc(-c3ccccc3)c2c1N (single isomer, unassigned) [74A, 6-(butylsulfinyl)-4-phenyl-2-(pyridin-3-yl)thieno[2,3-d]pyrimidin-5-amine] |

same assay, conditions: Enzyme Inhibitor IC50 (nM) at 5 nM 15-PGDH, 5 nM recombinant 15-PGDH

| IC50 [nM] | Compound |
| --- | --- |
| 4 to 20 | CCCC[S+]([O-])c1sc2nc(C3CC3)cc(-c3ccccc3)c2c1N (centres unmarked) [compound 25] |
| 4 to 20 | CCCC[S+]([O-])c1sc2nc(-c3ccc(OC)nc3)cc(-c3ccccc3)c2c1N (centres unmarked) [compound 23] |

same assay, conditions: read-out: Enzyme Inhibitor IC50 (nM) at 1 nM 15-PGDH; 1 nM recombinant 15-PGDH

| IC50 [nM] | Compound |
| --- | --- |
| 0.72 | CCCC[S@@+]([O-])c1sc2nc(-c3cncnc3)cc(-c3cnc(C)n3C)c2c1N [39A] |
| > 100 | CCCC[S@+]([O-])c1sc2nc(-c3cnc(N)nc3)cc(-c3ccccc3)c2c1N [64B] |
| 27 | CCCC[S@+]([O-])c1sc2nc(-c3cccnc3)cc(-c3ccccc3)c2c1N [41B] |
| 27 | CCCC[S@+]([O-])c1sc2nc(-c3cccnc3)cc(-c3cnc(C)n3C)c2c1N [38B] |
| 0.76 | CCCC[S@@+]([O-])c1sc2nc(-c3cccnc3)cc(-c3cnc(C)n3C)c2c1N [38A] |
| 0.72 | CCCC[S@@+]([O-])c1sc2nc(-c3nccs3)cc(-c3cn(C)cn3)c2c1N [48A] |
| 0.65 | CCCC[S@@+]([O-])c1sc2nc(-c3ccncn3)cc(-c3ccccc3)c2c1N [47A] |
| 0.58 | CCCC[S@@+]([O-])c1sc2nc(-c3cccnc3)cc(-c3cncn3C)c2c1N [43A] |
| 0.5 | CCCC[S@@+]([O-])c1sc2nc(-c3cnc(NC)nc3)cc(-c3ccccc3)c2c1N [60A] |
| 0.7 | CCCC[S@@+]([O-])c1sc2nc(-c3cnn(C)c3)cc(-c3ccccc3)c2c1N [46A] |
| 0.75 | CCCC[S@@+]([O-])c1sc2nc(-c3cccnc3)cc(-c3cnc(C4CC4)n3C)c2c1N [52A, (R)-2-(butylsulfinyl)-4-(2-cylcopropyl-1-methyl-1H-imidazol-5-yl)-6-(pyridine-3-yl)thieno[2,3-b]pyridine-3-amine] |
| 0.48 | COCCC[S@@+]([O-])c1sc2nc(-c3cccnc3)cc(-c3ccccc3)c2c1N [68A] |
| 30 | COCCC[S@+]([O-])c1sc2nc(-c3cnc(N)nc3)cc(-c3ccccc3)c2c1N [65B] |
| > 100 | CCCC[S@+]([O-])c1sc2nc(-c3cccnc3)cc(-c3cccnc3)c2c1N [54B] |
| 24 | CCCC[S@+]([O-])c1sc2nc(-c3cnc(N)nc3)cc(-c3ccc(F)cc3)c2c1N [61B] |
| 0.36 | CCCC[S@@+]([O-])c1sc2nc(-c3cnc(N)nc3)cc(-c3ccccc3)c2c1N [64A] |
| > 100 | CCCC[S@+]([O-])c1sc2nc(-c3cncnc3)cc(-c3cnc(C)n3C)c2c1N [39B] |
| 79 | CCCC[S@+]([O-])c1sc2nc(-c3ccncn3)cc(-c3ccccc3)c2c1N [47B] |
| > 100 | COCCC[S@+]([O-])c1sc2nc(-c3cccnc3)cc(-c3cncn3C)c2c1N [50B] |

| IC50 [nM] | Compound |
| --- | --- |
| 0.57 | COCCC[S@@+]([O-])c1sc2nc(-c3cccnc3)cc(-c3cncn3C)c2c1N [50A] |
| > 100 | CCCC[S@+]([O-])c1sc2nc(-c3cccnc3)cc(-c3cncn3C)c2c1N [43B] |
| 0.59 | CCCC[S@@+]([O-])c1sc2nc(-c3cncnc3)cc(-c3ccccc3)c2c1N [42B] |
| > 100 | COCCC[S@+]([O-])c1sc2nc(-c3cccnc3)cc(-c3ccccc3)c2c1N [68B] |
| 41 | CCCC[S@+]([O-])c1sc2nc(-c3cnc(NC)nc3)cc(-c3ccccc3)c2c1N [60B] |
| > 100 | CCCC[S@+]([O-])c1sc2nc(-c3cccnc3)cc(-c3nnc(C4CC4)n3C)c2c1N [52B] |
| 0.77 | COCCC[S@@+]([O-])c1sc2nc(-c3cccnc3)cc(-c3cn(C)cn3)c2c1N [89A] |
| 74 | COCCC[S@+]([O-])c1sc2nc(-c3cccnc3)cc(-c3cn(C)cn3)c2c1N [89B] |
| 30 | CCCC[S@+]([O-])c1sc2nc(-c3cncnc3)cc(-c3ccccc3)c2c1N [42A] |
| 0.56 | CCCC[S@@+]([O-])c1sc2nc(-c3ccc(N)nc3)cc(-c3ccccc3)c2c1N [62A] |
| > 100 | CCCC[S@+]([O-])c1sc2nc(-c3cnn(C)c3)cc(-c3ccccc3)c2c1N [46B] |
| 0.13 | CCCC[S@+]([O-])c1sc2nc(-c3cccnc3)cc(-c3ccccn3)c2c1N [58B] |
| 0.44 | CCCC[S@@+]([O-])c1sc2nc(-c3cnc(N)nc3)cc(-c3ccc(F)cc3)c2c1N [61A] |
| 0.45 | CCCC[S@@+]([O-])c1sc2nc(-c3cccnc3)cc(-c3cccnc3)c2c1N [54A] |
| 0.55 | CCCC[S@@+]([O-])c1sc2nc(-c3cccnc3)cc(-c3ccccn3)c2c1N [58A] |
| > 100 | CCCC[S@+]([O-])c1sc2nc(-c3nccs3)cc(-c3cn(C)cn3)c2c1N [48B] |
| 0.73 | CCCC[S@@+]([O-])c1sc2nc(-c3cccnc3)cc(-c3ccccc3)c2c1N [41A] |
| 64 | CCCC[S@+]([O-])c1sc2nc(-c3ccc(N)nc3)cc(-c3ccccc3)c2c1N [62B] |
| 0.59 | COCCC[S@@+]([O-])c1sc2nc(-c3cnc(N)nc3)cc(-c3ccccc3)c2c1N [65A] |

same assay, conditions: read-out: Enzyme Inhibitor IC50 (nM) at 5 nM 15-PGDH; 5 nM recombinant 15-PGDH

| IC50 [nM] | Compound |
| --- | --- |
| 1.4 | CCCC[S@@+]([O-])c1sc2nc(-c3nccs3)cc(-c3cn(C)c(C)n3)c2c1N (stereo in doubt) [compound 4, 2-(butylsulfinyl)-4-(1,2-dimethyl-1H-imidazol-4-yl)-6-(thiazol-2-yl)thieno[2,3-b]pyridin-3-amine] |
| 2.3 | CCCC[S+]([O-])c1sc2nc(-c3nccs3)cc(-c3cn(C)c(C)n3)c2c1N (centres unmarked) [compound 2, 2-(butylsulfinyl)-4-(1,2-dimethyl-1H-imidazol-4-yl)-6-(thiazol-2-yl)thieno[2,3-b]pyridin-3-amine] |
| > 500 | CCCC[S@+]([O-])c1sc2nc(-c3nccs3)cc(-c3cn(C)c(C)n3)c2c1N (stereo in doubt) [compound 3, 2-(butylsulfinyl)-4-(1,2-dimethyl-1H-imidazol-4-yl)-6-(thiazol-2-yl)thieno[2,3-b]pyridin-3-amine] |
| 132 | CCCC[S+]([O-])c1sc2nc(-c3nccs3)cc3c4c(nc1c23)NC=NC=4 (centres unmarked) [compound 7, 5-(butylsulfinyl)-2-(thiazol-2-yl)-7H-pyrimido[4,5-c]thieno[2,3,4-ij][2,7]naphthyridine] |
| 86 | CCCC[S+]([O-])c1sc2nc(-c3nccs3)cc3c2c1Nc1ncncc1-3 (centres unmarked) [compound 6, 5-(butylsulfinyl)-2-(thiazol-2-yl)-6H-pyrimido[4,5-c]thieno[2,3,4-ij][2,7]naphthyridine] |

test system: not listed separately; assay: metabolic stability in mouse liver microsomes; type: in vitro ADME; conditions: LC-MS, FIGS. 2 and 3
Experimental: The metabolic stability was determined by incubating the compounds at a concentration of 10 μM in the presence of microsomes derived from mouse livers. Compound concentrations were monitored by HPLC/MS over time, and half-lives were calculated from the slope of the best-fit line for Ln[compound] vs time.
Metabolite M8 is a thioamide resulting from oxidative cleavage of the thiazole ring. By contrast, 6 membered ring heteroaryls cannot form this metabolite or the toxic byproducts.

| Compound | metabolites formed on incubation with mouse liver microsomes |
| --- | --- |
| CCCC[S+]([O-])c1sc2nc(-c3nccs3)cc(-c3cnc(C)n3C)c2c1N (centres unmarked) [2-(butylsulfinyl)-4-(1,2-dimethyl-1H-imidazol-5-yl)-6-(thiazol-2-yl)thieno[2,3-b]pyridin-3-amine] | formation of metabolites derived from oxidation of the thiazole |

test system: not listed separately; assay: chemical stability of the isolated product; type: physicochemical; conditions: cyclizes completely during 10 days to Examples 6 and 7
From the text: Rather, it cyclized and oxidized as described below.
The desired product 2-(butylsulfinyl)-4-(pyrimidin-5-yl)-6-(thiazol-2-yl)thieno[2,3-b]pyridin-3-amine (Example 5-4) is unstable and cyclizes completely during 10 days to Example 6, (5-(butylsulfinyl)-2-(thiazol-2-yl)-6H-pyrimido[4,5-c]thieno[2,3,4-ij][2,7]naphthyridine) and Example 7, (5-(butylsulfinyl)-2-(thiazol-2-yl)-7H-pyrimido[4,5-c]thieno[2,3,4-ij][2,7]naphthyridine) with Example 6 being the major product. The cyclized products are separable on preparative HPLC: 21.2×250 mm Kinetex 5 μm EVO C18 100 Å reversed phase column using a 2:1 ratio of water to CH3CN with a 10 mL/min flow rate and 100 μL injection volume.

| stability of the compound | Compound |
| --- | --- |
| unstable | CCCC[S+]([O-])c1sc2nc(-c3nccs3)cc(-c3cncnc3)c2c1N (centres unmarked) [Example 5-4, 2-(butylsulfinyl)-4-(pyrimidin-5-yl)-6-(thiazol-2-yl)thieno[2,3-b]pyridin-3-amine] |

test system: IL1-β treated A549 cells; assay: induction of PGE2 from IL1-β treated A549 cells; type: cell-based; conditions: Homo sapiens; A549 cells stimulated with IL1-β for 24 hours

| EC50 [nM] | Compound |
| --- | --- |
| < 4 | CCCC[S+]([O-])c1sc2nc(-c3cnc(N)nc3)cc(-c3ccccc3)c2c1N (centres unmarked) |
